The term EC50 denotes the concentration giving half of the maximal effect. A word on the IC50: it is the concentration that inhibits the measured activity by half. The melting point is the temperature of the solid-liquid transition.

These results are taken from patent US20230183249A1, “NEW TRIAZINOINDOLE COMPOUNDS” (JANSSEN PHARMACEUTICA NV, priority 2020, published 2023).

The structures appear in SMILES notation.

For one series, the system named is TNF. Put plainly: PBMC assay, TNF cytokine levels after LPS stimulation. Type of series: cell-based. The settings on record: human PBMCs, 100 ng/ml LPS for 6 hrs, TNF in supernatant via MSD. As for the experimental part: (§1) Peripheral venous blood was collected from healthy individuals and human peripheral blood mononuclear cells (PBMCs) were isolated from blood by Ficoll-Histopaque (Sigma-Aldrich, A0561) density gradient centrifugation. After isolation, PBMCs were stored in liquid nitrogen for later use. Upon thawing, PBMC cell viability was determined in growth medium (RPMI media supplemented with 10% fetal bovine serum, 1% Pen-Strep and 1% L-glutamine). Compounds were spotted in a 1:3 serial dilution in DMSO and diluted to the final concentration in 30 μl medium in 96 well plates (Falcon, 353072). PBMCs were added at a density of 7.5×10^4 cells per well and incubated for 30 min in a 5% C02 incubator at 37° C. LPS stimulation was performed by addition of 100 ng/ml LPS (final concentration, Invivogen, tlrl-smlps) for 6 hrs followed by collection of cellular supernatant and the analysis of IL-1β (μM) and TNF cytokines levels (μM) via MSD technology according to manufacturers' guidelines (MSD, K151A0H).
The IC50 values (for IL-1β) and EC50 values (TNF) were obtained on compounds of the invention/examples, and are depicted in the following table: […]

Another series addresses T1, NLRP3 (Homo sapiens, UniProt Q96P20).
T1 construct: human peripheral blood mononuclear cells (PBMCs) were isolated from blood; endogenous in cells; host or cells: primary human PBMCs from healthy donors
As to the kind of experiment: PBMC assay, IL-1β release after LPS stimulation. Format: cell-based. As to conditions: human PBMCs, 100 ng/ml LPS for 6 hrs, IL-1β in supernatant via MSD; read-out: IL1β IC50. As for the experimental part: The activity of a compound according to the present invention can be assessed by in vitro methods.
as §1, with “Compounds were spotted in a 1:3 serial dilution in DMSO and diluted to the final concentration in 30 μl medium in 96 well plates (Falcon, 353072).” left out

T1 sequence (Q96P20 whole entry): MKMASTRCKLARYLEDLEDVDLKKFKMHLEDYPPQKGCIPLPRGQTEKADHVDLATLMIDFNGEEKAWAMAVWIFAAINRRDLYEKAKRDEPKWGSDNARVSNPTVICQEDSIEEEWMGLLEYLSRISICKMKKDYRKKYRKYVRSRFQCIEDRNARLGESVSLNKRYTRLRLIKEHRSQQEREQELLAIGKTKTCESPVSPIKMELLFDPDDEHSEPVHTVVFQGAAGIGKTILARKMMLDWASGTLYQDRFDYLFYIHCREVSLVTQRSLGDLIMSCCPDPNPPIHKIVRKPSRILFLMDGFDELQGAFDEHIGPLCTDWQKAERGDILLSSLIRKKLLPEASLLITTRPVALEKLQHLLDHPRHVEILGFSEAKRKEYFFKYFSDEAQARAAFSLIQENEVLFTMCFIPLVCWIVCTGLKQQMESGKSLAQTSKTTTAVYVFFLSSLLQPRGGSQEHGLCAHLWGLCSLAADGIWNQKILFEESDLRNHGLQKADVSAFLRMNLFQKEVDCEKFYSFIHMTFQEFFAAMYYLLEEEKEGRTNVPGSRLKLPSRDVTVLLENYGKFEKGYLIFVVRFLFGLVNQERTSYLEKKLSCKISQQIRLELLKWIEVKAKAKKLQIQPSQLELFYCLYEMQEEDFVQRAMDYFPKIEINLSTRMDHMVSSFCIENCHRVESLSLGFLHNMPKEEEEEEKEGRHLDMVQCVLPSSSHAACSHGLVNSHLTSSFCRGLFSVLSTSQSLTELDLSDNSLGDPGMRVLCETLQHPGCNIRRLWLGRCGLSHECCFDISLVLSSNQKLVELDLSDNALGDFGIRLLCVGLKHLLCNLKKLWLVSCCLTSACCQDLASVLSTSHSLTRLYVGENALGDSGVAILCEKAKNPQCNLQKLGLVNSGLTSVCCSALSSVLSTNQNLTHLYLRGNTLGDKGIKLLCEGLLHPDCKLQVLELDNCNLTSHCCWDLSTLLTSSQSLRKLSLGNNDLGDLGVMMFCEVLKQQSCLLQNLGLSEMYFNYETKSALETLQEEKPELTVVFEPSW

Regarding `CCc1nn(CC(=O)NC2CC2)c(=O)c2cc3ccc(F)cc3n12` [Final Cpd 10], the melting point is 277.81 °C. Also, the EC50 in the series on TNF is more than 10 µM. Moreover, the IC50 on NLRP3 was 1.68 µM.
Compound `CCc1nn(CC(=O)Nc2cccnc2)c(=O)c2cc3ccccc3n12` [Final Cpd 15] returned a melting point of 232.81 °C. The compound also yielded an EC50 in the series with TNF of more than 10 µM. Further, the IC50 at NLRP3 turned out to be 0.63 µM.
Compound `CCc1nn(CC(=O)Nc2ccccc2OC)c(=O)c2cc3ccccc3n12` [Final Cpd 17] registered a melting point of 216.79 °C. Also, in the series with TNF, the 50% effective concentration (EC50) is more than 10 µM. For the same compound, the IC50 on NLRP3 was 2.8 µM.
Regarding `O=C(Cn1nc(C2CCCCC2)n2c(cc3ccccc32)c1=O)NC1CCOCC1` [Final Cpd 28], the concentration for a half-maximal effect (EC50) in the series on TNF is more than 10 µM. Further, the IC50 on NLRP3 is more than 10 µM.
`CC(C)c1nn(CC(=O)NC2CC2)c(=O)c2cc3ccccc3n12` [Final Cpd 29] yielded an EC50 in the series with TNF of more than 10 µM. For the same compound, the IC50 at NLRP3 came to 0.66 µM.
`CCc1nn(CC(=O)Nc2ccncn2)c(=O)c2cc3ccc(C)cc3n12` [Final Cpd 30] registered a melting point of 248.91 °C. The EC50 in the series on TNF was more than 10 µM. Further, the IC50 at NLRP3 was more than 10 µM.
`CCc1nn(CC(=O)Nc2ccncc2)c(=O)c2cc3ccc(F)cc3n12` [Final Cpd 31] yielded an EC50 with TNF of more than 10 µM. Besides, the IC50 at NLRP3 is 0.79 µM.
Take `CCc1nn(CC(=O)NC2CCOCC2)c(=O)c2cc3ccc(C)cc3n12` [Final Cpd 32]: the melting point was found to be 264.11 °C. This compound also displayed an EC50 in the series with TNF of more than 10 µM. Also, the concentration for half-maximal inhibition (IC50) at NLRP3 was more than 10 µM.
In the case of `CCc1nn(CC(=O)Nc2ccncn2)c(=O)c2cc3ccc(F)cc3n12` [Final Cpd 33], the concentration for a half-maximal effect (EC50) in the series on TNF was more than 10 µM. On NLRP3, the IC50 is 0.31 µM.
Compound `CCc1nn(CC(=O)NC2CCOCC2)c(=O)c2cc3cc(C)ccc3n12` [Final Cpd 34] yielded a melting point of 274.18 °C. The compound further returned an EC50 in the series with TNF of more than 10 µM. Also, at NLRP3, the IC50 came to 7.24 µM.
In turn, `CCc1nn(CC(=O)NC2CCOCC2)c(=O)c2cc3cc(F)ccc3n12` [Final Cpd 35] registered a melting point of 285.66 °C. Moreover, the EC50 in the series on TNF was more than 10 µM. Besides, on NLRP3, the IC50 is more than 10 µM.
In turn, `CCc1nn(CC(=O)Nc2ccncn2)c(=O)c2cc3cc(F)ccc3n12` [Final Cpd 36] displayed an EC50 with TNF of more than 10 µM. Also, at NLRP3, the IC50 worked out at 7.24 µM.
In turn, `CCc1nn(CC(=O)Nc2ccncn2)c(=O)c2cc3cc(C)ccc3n12` [Final Cpd 37] yielded an EC50 in the series with TNF of more than 10 µM. In addition, the IC50 at NLRP3 is more than 10 µM.
`CCc1nn(CC(=O)Nc2ccn(C(C)C)n2)c(=O)c2cc3ccccc3n12` [Final Cpd 38]: the melting point was 243 °C. In the series with TNF, this compound yielded an EC50 of more than 20 µM. Moreover, on NLRP3, the IC50 turned out to be 7.7 µM.
`CCc1nn(CC(=O)N[C@H]2C[C@@](C)(O)C2)c(=O)c2cc3ccc(F)cc3n12` [Final Cpd 39, 2-{4-ethyl-7-fluoro-1-oxo-[1,2,4]triazino[4,5-a]indol-2(1H)-yl}-N-((1s,3s)-3-hydroxy-3-methylcyclobutyl)acetamide] came in with an EC50 with TNF of more than 20 µM. In addition, on NLRP3, the IC50 worked out at 0.176 µM.
In the series with TNF, `CN(C)c1nn(CC(=O)N[C@H]2C[C@@](C)(O)C2)c(=O)c2cc3ccc(F)cc3n12` [Final Cpd 40] displayed an EC50 of more than 20 µM. Moreover, at NLRP3, the IC50 was 0.237 µM.
`CC(C)c1nn(CC(=O)N[C@H]2C[C@@](C)(O)C2)c(=O)c2cc3ccccc3n12` [Final Cpd 41] returned an EC50 in the series on TNF of 15.4 µM. The IC50 at NLRP3 came to 0.052 µM.
In turn, `CC(C)c1nn(CC(=O)N[C@H]2C[C@@](C)(O)C2)c(=O)c2cc3ccc(F)cc3n12` [Final Cpd 42] registered an EC50 in the series with TNF of 10.9 µM. The IC50 at NLRP3 worked out at 0.077 µM.
In turn, `CCc1nn(CC(=O)N[C@H]2C[C@@](C)(O)C2)c(=O)c2cc3ccccc3n12` [Final Cpd 43] returned an EC50 in the series with TNF of more than 20 µM. For the same compound, at NLRP3, the IC50 came out at 0.086 µM.
In the series with TNF, `CN(C)c1nn(CC(=O)N[C@H]2C[C@@](C)(O)C2)c(=O)c2cc3ccccc3n12` [Final Cpd 44] yielded an EC50 of more than 20 µM. The IC50 at NLRP3 worked out at 0.057 µM.
For `CC(C)c1nn(CC(=O)Nc2ccc3nncn3c2)c(=O)c2cc3ccc(F)cc3n12` [Final Cpd 46], the EC50 in the series on TNF is more than 20 µM. Besides, the IC50 on NLRP3 was 0.044 µM.
Turning to `CN(C)c1nn(CC(=O)Nc2ccc3nncn3c2)c(=O)c2cc3ccccc3n12` [Final Cpd 47], in the series on TNF, the EC50 was more than 20 µM. At NLRP3, the half-inhibitory concentration (IC50) was determined as 0.052 µM.
`CCc1nn(CC(=O)Nc2ccc3nncn3c2)c(=O)c2cc3ccccc3n12` [Final Cpd 48] returned an EC50 in the series with TNF of more than 20 µM. At NLRP3, the IC50 was 0.122 µM.
The compound `CC(C)c1nn(CC(=O)Nc2ccc3nncn3n2)c(=O)c2cc3ccccc3n12` [Final Cpd 49, N-([1,2,4]triazolo[4,3-b]pyridazin-6-yl)-2-(4-isopropyl-1-oxo-[1,2,4]triazino[4,5-a]indol-2(1H)-yl)acetamide] registered an EC50 in the series on TNF of 3.94 µM. For the same compound, at NLRP3, the IC50 is 0.025 µM.
Regarding `COc1nn(CC(=O)NC2CC2)c(=O)c2cc3ccccc3n12` [Final Cpd 50], in the series on TNF, the concentration giving a half-maximal response (EC50) was more than 10 µM. In addition, the IC50 at NLRP3 turned out to be 4.07 µM.
